Activity calls are given as the source filed them. Where only a bound is given, the exact number is not on record here.

The source of these data is ChEMBL document CHEMBL1201862, “PubChem BioAssay data set” (2004).

Assay [1] in a line: cells. In kind it is functional, cell-based.
A short description of assay [2]: cells. In kind it is functional, cell-based. The source holds these as a separate data set.
Assay [3] has as its target T1, Short transient receptor potential channel 4 (Mus musculus, UniProt Q9QUQ5).
T1 sequence (Q9QUQ5 whole entry): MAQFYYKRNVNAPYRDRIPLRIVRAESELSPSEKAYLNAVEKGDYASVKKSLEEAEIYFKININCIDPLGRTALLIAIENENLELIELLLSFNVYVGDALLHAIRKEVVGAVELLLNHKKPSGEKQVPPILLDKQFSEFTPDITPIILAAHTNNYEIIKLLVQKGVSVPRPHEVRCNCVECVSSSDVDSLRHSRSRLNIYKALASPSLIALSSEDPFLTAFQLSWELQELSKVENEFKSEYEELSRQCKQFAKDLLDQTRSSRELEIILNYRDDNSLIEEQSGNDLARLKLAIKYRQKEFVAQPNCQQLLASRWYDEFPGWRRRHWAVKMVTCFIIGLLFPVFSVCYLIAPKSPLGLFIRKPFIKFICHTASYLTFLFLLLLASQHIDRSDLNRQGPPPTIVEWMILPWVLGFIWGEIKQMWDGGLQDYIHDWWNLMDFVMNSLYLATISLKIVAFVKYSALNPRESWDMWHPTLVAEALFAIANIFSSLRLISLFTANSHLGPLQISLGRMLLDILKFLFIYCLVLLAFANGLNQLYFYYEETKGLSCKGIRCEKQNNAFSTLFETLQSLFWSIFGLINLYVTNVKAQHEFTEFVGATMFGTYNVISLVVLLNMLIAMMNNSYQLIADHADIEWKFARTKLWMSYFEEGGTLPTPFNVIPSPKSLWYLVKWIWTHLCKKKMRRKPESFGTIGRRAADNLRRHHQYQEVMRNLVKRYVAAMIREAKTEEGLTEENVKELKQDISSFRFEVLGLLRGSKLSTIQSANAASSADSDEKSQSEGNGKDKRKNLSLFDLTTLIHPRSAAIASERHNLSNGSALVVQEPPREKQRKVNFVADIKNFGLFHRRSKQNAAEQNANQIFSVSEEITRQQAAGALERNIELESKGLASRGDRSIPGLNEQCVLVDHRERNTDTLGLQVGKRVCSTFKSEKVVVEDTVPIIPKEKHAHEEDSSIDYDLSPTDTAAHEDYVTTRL
As to the kind of experiment: mouse TRPC4 channel activators, dose response, cell-based, HEK293 TRPC4/mu-opioid, Fluo-4 calcium (AID 434937). In kind it is functional.

Assay [4] concerns the target Delta-type opioid receptor (Homo sapiens, UniProt P41143). As to the kind of experiment: Counterscreen for agonists of heterodimerization of the mu 1 (OPRM1) and delta 1 (OPRD1) opioid receptors: Luminescence-based cell-based high throughput dose response assay to identify agonists of OPRD1 homodimerization. [Related pubchem assays (depositor defined):AID504326, AID504355, AID504692, AID504904, AID504905]. In kind it is functional. Background: The purpose of a counterscreen is to sort out artefacts and off-target activity.

In assay [5] the target is Mu-type opioid receptor (Homo sapiens, UniProt P35372). As to the kind of experiment: Counterscreen for agonists of heterodimerization of the mu 1 (OPRM1) and delta 1 (OPRD1) opioid receptors: Luminescence-based cell-based high throughput dose response assay to identify agonists of OPRM1 homodimerization. Format: functional.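 Also: U2OS cells expressing OPRM1 and beta-arrestin as split beta-galactosidase partners.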
Mu-type opioid receptor, sequence (P35372 whole entry): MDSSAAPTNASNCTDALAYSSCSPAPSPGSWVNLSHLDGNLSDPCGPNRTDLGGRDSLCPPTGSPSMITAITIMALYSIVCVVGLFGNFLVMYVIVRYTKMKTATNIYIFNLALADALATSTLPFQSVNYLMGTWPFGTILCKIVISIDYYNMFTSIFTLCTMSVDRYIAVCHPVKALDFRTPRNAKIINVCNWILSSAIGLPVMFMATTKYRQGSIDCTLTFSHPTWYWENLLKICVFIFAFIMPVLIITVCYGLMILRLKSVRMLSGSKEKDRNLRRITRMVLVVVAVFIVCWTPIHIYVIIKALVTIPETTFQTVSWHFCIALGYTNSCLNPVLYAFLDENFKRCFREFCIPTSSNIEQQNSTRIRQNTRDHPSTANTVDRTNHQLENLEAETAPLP
In assay [6] the target is 5-hydroxytryptamine receptor 5A (Homo sapiens, UniProt P47898). As to the kind of experiment: Counterscreen for agonists of OPRM1-OPRD1 heterodimerization: luminescence-based cell-based high throughput dose response assay to identify agonists of 5-hydroxytryptamine (serotonin) 5A receptor (HTR5A). [Related pubchem assays (depositor defined):AID504326, AID504355, AID504692, AID504904, AID504905]. In kind it is functional.
5-hydroxytryptamine receptor 5A, sequence (P47898 whole entry): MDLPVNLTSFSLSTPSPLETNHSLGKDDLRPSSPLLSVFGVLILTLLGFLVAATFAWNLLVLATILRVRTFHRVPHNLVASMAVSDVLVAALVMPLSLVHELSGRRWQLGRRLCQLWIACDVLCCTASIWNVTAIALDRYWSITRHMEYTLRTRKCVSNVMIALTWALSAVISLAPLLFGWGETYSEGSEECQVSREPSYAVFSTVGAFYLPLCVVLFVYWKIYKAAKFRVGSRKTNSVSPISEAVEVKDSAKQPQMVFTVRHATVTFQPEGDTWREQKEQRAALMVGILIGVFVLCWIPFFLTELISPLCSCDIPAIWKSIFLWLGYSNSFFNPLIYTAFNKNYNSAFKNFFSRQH

Assay [7] concerns Streptococcus sp. 'group A'. As to the kind of experiment: growth inhibition of control SK(-) GAS strain, dose response, counter-screen for streptokinase expression inhibitor project, luminescence, kanamycin, BacTiterGlo, confirmation (AID 1900). In kind it is functional, organism-based.
Assay [8] in a line: microbe, parasite or virus in culture. The note with it: Mycobacterium tuberculosis. In kind it is functional.
The test system of assay [9] is Streptococcus. As to the kind of experiment: Group A Streptococcus viability loss, dose response, counter-screen for streptokinase expression inhibitor project, luminescence, BacTiterGlo (AID 1915).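 Also: potency for reduction of bacterial viability or growth.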 In kind it is functional, organism-based.
Assay [10] deals with Escherichia coli. As to the kind of experiment: microbe, parasite or virus in culture.
Assay [11] deals with Escherichia coli. As to the kind of experiment: microbe, parasite or virus in culture. This is another data set of the same source.
Assay [12] addresses Exodeoxyribonuclease V (Escherichia coli (strain K12), UniProt P04993+P07648+P08394). As to the kind of experiment: E. coli RecBCD inhibitors, dose response, counter-screen for AddAB inhibitor project, absorbance, V66 E. coli, mutant T4 phage (AID 492957). Format: functional, cell-based, Escherichia coli str. K-12 substr. MG1655.
Assay [13] is described as follows: Counterscreen for AddAB inhibitors: absorbance-based bacterial cell-based high throughput dose response assay for inhibitors of bacterial viability. [Related pubchem assays (depositor defined):AID435030, AID449728, AID449731, AID488942, AID488955, AID488956]. Format: functional.
Assay [14] in a line: insulin promoter down-regulators in MIN6 cells, imaging, high-content screening, mouse beta cells (AID 1628). In kind it is functional.
For assay [15], the system named is BJ. As to the kind of experiment: cytotoxicity toward BJ-TERT fibroblasts, dose response, cell-based, RAS-independent, luminescence (AID 1933). Format: functional. The note with it: Homo sapiens.
Assay [16] is described as follows: cytotoxicity in MIN6 insulinoma cells, dose response, cytotoxicity control, cell-based, mouse insulinoma (AID 2122).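 Also: confirmatory high-throughput counterscreen run to flag cytotoxic compounds; mouse MIN-6 beta cells carrying an insulin promoter eGFP reporter.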 Format: functional.
Assay [17] deals with BJ. As to the kind of experiment: cells. In kind it is functional, cell-based. The note with it: Homo sapiens.
In assay [18] the test system is BJ. As to the kind of experiment: cytotoxicity toward BJ-TERT-LT-ST fibroblasts, dose response, cell-based, RAS-independent, luminescence (AID 1935).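 Also: BJ fibroblasts immortalized with TERT plus LT and ST oncogenes.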 In kind it is functional. The note with it: Homo sapiens.
A short description of assay [19]: cytotoxicity toward DRD oncogenic fibroblasts, dose response, cell-based, non-viral oncogenic, luminescence (AID 1934). In kind it is functional. The note with it: Homo sapiens.
Assay [20] deals with BJ. As to the kind of experiment: cytotoxicity toward Ras-transformed BJeLR fibroblasts, dose response, cell-based, alamar blue fluorescence, cherrypicked samples (AID 2631).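 Also: confirmatory dose-response assay in RAS-dependent BJ fibroblasts engineered with TERT, LT and ST, with cytotoxicity read by fluorescence.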 Format: functional. The note with it: Homo sapiens.

Exodeoxyribonuclease V, sequence (P04993 whole entry): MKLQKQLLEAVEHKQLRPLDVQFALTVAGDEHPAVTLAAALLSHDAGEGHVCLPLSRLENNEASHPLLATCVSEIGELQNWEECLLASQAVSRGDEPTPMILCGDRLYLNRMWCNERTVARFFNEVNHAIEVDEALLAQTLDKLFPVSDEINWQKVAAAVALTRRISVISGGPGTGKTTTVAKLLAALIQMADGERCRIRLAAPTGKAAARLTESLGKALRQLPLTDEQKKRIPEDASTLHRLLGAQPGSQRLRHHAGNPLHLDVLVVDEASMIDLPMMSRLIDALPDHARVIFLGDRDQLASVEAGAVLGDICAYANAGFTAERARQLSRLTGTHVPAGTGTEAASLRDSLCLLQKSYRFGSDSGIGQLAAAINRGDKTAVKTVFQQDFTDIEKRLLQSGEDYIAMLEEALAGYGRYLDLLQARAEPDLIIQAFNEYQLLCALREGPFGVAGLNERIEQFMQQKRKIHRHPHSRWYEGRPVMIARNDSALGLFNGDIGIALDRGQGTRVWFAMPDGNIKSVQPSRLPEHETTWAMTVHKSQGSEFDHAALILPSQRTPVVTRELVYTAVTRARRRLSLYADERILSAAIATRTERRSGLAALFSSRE
Exodeoxyribonuclease V, sequence (P07648 whole entry): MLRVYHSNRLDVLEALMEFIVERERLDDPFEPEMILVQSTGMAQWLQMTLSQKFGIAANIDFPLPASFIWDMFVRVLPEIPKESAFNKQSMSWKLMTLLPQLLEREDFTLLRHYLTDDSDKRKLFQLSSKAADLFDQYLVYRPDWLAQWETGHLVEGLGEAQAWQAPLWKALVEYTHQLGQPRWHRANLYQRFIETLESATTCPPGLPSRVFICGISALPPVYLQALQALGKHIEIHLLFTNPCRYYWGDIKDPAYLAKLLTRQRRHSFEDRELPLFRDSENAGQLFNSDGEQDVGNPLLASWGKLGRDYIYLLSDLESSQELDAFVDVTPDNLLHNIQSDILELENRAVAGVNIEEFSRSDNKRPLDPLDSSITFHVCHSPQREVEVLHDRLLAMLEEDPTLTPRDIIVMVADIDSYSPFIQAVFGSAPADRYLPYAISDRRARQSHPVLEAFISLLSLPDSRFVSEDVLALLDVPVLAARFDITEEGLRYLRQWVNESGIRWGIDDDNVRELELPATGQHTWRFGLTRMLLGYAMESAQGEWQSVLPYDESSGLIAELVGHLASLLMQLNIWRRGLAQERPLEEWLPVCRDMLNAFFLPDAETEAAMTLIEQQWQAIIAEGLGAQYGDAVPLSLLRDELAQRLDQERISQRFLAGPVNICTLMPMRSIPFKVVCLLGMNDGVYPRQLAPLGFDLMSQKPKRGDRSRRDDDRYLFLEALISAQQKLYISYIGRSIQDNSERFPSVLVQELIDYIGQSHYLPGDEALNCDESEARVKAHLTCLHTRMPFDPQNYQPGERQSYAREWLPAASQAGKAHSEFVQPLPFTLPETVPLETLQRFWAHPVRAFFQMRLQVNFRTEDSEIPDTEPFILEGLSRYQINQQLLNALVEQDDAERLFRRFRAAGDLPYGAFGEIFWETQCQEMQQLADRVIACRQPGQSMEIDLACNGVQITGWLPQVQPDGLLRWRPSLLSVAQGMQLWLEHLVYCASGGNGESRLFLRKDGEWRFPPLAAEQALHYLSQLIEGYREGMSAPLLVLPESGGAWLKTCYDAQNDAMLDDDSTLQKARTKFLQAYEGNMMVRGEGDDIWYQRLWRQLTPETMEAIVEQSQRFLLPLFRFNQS
Exodeoxyribonuclease V, sequence (P08394 whole entry): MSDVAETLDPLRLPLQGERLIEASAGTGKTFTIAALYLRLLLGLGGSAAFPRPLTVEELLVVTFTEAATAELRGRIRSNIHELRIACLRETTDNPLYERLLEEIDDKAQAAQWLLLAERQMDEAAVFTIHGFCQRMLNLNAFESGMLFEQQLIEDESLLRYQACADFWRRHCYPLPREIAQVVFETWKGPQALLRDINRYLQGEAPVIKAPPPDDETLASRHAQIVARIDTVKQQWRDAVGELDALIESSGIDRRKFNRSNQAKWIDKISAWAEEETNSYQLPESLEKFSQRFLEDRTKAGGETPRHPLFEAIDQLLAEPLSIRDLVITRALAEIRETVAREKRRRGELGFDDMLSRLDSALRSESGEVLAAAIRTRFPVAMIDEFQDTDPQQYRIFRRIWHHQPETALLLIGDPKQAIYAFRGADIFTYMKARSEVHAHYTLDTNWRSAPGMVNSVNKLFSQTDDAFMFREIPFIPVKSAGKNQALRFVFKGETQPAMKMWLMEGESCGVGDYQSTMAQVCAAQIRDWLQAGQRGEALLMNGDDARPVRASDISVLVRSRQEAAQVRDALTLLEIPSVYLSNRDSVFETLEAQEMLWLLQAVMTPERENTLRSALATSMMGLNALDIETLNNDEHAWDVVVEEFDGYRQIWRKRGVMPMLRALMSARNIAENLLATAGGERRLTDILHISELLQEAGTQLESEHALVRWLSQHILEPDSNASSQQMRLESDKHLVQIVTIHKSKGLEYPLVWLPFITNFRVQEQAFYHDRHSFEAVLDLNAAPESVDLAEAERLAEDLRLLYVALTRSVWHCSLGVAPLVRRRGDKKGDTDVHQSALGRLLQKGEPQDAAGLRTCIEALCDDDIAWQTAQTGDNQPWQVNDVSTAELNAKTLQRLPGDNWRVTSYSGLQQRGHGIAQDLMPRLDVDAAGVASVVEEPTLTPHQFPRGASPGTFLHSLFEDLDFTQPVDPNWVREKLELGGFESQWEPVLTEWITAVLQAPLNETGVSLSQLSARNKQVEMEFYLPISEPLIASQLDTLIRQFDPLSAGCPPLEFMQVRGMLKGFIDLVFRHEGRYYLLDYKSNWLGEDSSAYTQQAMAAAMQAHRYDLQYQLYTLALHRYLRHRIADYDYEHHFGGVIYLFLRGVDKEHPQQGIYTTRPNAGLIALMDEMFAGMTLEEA
Delta-type opioid receptor, sequence (P41143 whole entry): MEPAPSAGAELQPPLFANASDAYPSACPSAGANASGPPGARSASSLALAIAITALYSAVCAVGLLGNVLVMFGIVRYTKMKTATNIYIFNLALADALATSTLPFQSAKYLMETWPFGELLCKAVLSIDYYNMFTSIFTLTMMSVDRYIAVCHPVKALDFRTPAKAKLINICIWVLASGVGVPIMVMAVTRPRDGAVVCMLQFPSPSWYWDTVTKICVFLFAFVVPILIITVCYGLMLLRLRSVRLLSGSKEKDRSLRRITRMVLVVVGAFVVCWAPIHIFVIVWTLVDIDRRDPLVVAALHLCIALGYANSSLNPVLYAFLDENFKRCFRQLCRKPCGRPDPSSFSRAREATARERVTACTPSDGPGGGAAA

In the case of `Cc1ccc(C2(O)C[N+](c3ccccc3C)=C3SCCN32)cc1` (stereo not given), the EC50 – broadly, the concentration needed to bring the measured effect to its halfway point – in assay [1] was > 350 µM (not active); in assay [2] it was > 350 µM (not active); in assay [3] it was 376 nM (active); in [4], > 92.5 µM (inactive); in [5] it was 2.83 µM (active); in [6], > 92.5 µM (inactive).

For the molecule `CN(C)[C@@H]1C(=O)C(C(N)=O)=C(O)[C@@]2(O)C(O)=C3C(=O)c4c(O)cccc4[C@@](C)(O)C3C[C@@H]12` (stereo not given in full), the values for the half-maximal effective concentration (EC50) in assay [7] and in assay [9] were 99 nM (active) and 98 nM (active), respectively. The CC50 in assay [8] was > 40 µM (active). Further, the values for the AC50 in assay [10] and in assay [11] were 19.9 µM (active) and 1.17 µM (active), respectively.

As to `COc1ccc(Nc2nnc(SCc3cn4c(C)cccc4n3)s2)cc1`, the IC50 in [12] and in assay [13] was > 119 µM (inactive) throughout.

In the case of `CCn1cc(C(=O)NCCc2ccccc2)c(=O)c2cc(F)c(N3CCN(C)CC3)cc21`, the IC50 (commonly the concentration that gives 50% inhibition) in assay [12] was > 118 µM (inactive); in assay [13], 27.1 µM (inactive).

Consider `CC(=O)Oc1ccc2c(c1)OC(c1ccccc1)CC21CC(C)(C)N=C(S)N1` (stereo not given), for which the AC50 – broadly, the midpoint of the concentration-response curve, whichever way the signal moves – in assay [10] was 31.7 µM (active).

For `O=C(NCc1cccnc1)c1ccc(NC(=O)c2cccc([N+](=O)[O-])c2)cc1`, the IC50 in assay [14] is 576 nM (active); in assay [16] it was > 16 µM (inactive). Moreover, the EC50 was 27.4 µM (active) in [15]; 2.19 µM (inconclusive) in assay [17]; 19.3 µM (active) in [18]; > 150 µM (not active) in [19]; 36 µM (active) in assay [20].

`CCn1nc(C)c(CN2CCc3c([nH]c4ccccc34)C2c2ccc(F)c(OC)c2)c1C` (stereo not given): the IC50 was 2290 nM (active) in assay [14] and 13.6 µM (inactive) in assay [16].
